According to ChEMBL document CHEMBL6134848, “Deuteration Strategy-Inspired Design of Novel Diarylpyrimidine Derivatives as Potent Non-Nucleoside Reverse Transcriptase Inhibitors Featuring Improved Efficacy, Selectivity, and Druggability” (J Med Chem, 2025):

Experiments:
[1] = system: Human immunodeficiency virus 1; assay: Antiviral activity against drug-resistant HIV-1 harboring RT L100I mutant infected in human MT4 cells assessed as protection against virus-induced cytopathicity measured after 5 days post-infection by MTT assay; format: functional, organism-based; conditions: Human immunodeficiency virus 1, MT4, 120 h
[2] = system: Human immunodeficiency virus 1; assay: Antiviral activity against drug-resistant HIV-1 harboring RT K103N mutant infected in human MT4 cells assessed as protection against virus-induced cytopathicity measured after 5 days post-infection by MTT assay; format: functional, organism-based; conditions: Human immunodeficiency virus 1, MT4, 120 h
[3] = system: Human immunodeficiency virus 1; assay: Antiviral activity against drug-resistant HIV-1 harboring RT Y181C mutant infected in human MT4 cells assessed as protection against virus-induced cytopathicity measured after 5 days post-infection by MTT assay; format: functional, organism-based; conditions: Human immunodeficiency virus 1, MT4, 120 h
[4] = system: Human immunodeficiency virus 1; assay: Antiviral activity against drug-resistant HIV-1 harboring RT Y188L mutant infected in human MT4 cells assessed as protection against virus-induced cytopathicity measured after 5 days post-infection by MTT assay; format: functional, organism-based; conditions: Human immunodeficiency virus 1, MT4, 120 h
[5] = system: Human immunodeficiency virus 1; assay: Antiviral activity against drug-resistant HIV-1 harboring RT F227L/V106A mutant infected in human MT4 cells assessed as protection against virus-induced cytopathicity measured after 5 days post-infection by MTT assay; format: functional, organism-based; conditions: Human immunodeficiency virus 1, MT4, 120 h
[6] = system: Human immunodeficiency virus 1; assay: Antiviral activity against drug-resistant HIV-1 harboring RT RES056 mutant infected in human MT4 cells assessed as protection against virus-induced cytopathicity measured after 5 days post-infection by MTT assay; format: functional, organism-based; conditions: Human immunodeficiency virus 1, MT4, 120 h
[7] = target: T1, Voltage-gated inwardly rectifying potassium channel KCNH2 (Homo sapiens, UniProt Q12809); assay: Inhibition of hERG expressed in CHO cells by manual patch-clamp electrophysiology; format: toxicity, cell-based
T1 sequence (Q12809 whole entry): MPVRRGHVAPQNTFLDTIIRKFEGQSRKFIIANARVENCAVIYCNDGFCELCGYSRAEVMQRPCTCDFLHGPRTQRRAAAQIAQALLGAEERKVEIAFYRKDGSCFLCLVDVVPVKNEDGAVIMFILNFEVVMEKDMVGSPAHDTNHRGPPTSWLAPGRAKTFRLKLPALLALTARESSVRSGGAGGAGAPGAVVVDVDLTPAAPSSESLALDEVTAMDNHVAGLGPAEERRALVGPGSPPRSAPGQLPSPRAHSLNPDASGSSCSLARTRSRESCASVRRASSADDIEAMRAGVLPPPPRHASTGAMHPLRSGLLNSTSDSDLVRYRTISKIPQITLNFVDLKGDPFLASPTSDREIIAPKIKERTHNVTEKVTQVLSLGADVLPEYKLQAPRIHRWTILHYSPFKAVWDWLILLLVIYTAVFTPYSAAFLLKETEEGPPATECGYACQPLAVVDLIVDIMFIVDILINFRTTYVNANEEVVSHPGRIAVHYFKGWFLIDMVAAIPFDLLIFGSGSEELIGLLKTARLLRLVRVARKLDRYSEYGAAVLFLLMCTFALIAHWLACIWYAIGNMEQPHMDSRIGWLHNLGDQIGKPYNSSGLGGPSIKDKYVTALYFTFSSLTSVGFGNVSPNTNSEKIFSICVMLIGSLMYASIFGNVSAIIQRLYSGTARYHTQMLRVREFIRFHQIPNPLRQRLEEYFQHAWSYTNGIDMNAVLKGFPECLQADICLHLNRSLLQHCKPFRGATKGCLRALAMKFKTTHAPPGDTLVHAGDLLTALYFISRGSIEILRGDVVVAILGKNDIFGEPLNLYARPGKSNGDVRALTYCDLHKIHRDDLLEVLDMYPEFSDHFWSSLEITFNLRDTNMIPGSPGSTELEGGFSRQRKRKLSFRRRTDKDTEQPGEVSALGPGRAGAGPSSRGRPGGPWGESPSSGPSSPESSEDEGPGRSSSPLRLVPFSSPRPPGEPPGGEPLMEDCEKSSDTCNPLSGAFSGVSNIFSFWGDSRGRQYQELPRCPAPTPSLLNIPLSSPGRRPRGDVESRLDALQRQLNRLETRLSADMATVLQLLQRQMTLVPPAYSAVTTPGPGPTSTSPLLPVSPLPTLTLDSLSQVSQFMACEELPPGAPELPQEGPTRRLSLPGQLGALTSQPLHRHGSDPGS

[8] = target: T1, Voltage-gated inwardly rectifying potassium channel KCNH2; assay: Inhibition of hERG expressed in CHO cells assessed as fold increase by manual patch-clamp electrophysiology relative to RPV; format: toxicity, cell-based
Cytochrome P450 2C8 = target: T2, Cytochrome P450 2C8 (Homo sapiens, UniProt P10632); assay: Inhibition of CYP2C8 in human liver microsomes using amodiaquine as substrate incubated for 15 to 45 mins by; format: ADME, Microsome
T2 sequence (P10632 whole entry): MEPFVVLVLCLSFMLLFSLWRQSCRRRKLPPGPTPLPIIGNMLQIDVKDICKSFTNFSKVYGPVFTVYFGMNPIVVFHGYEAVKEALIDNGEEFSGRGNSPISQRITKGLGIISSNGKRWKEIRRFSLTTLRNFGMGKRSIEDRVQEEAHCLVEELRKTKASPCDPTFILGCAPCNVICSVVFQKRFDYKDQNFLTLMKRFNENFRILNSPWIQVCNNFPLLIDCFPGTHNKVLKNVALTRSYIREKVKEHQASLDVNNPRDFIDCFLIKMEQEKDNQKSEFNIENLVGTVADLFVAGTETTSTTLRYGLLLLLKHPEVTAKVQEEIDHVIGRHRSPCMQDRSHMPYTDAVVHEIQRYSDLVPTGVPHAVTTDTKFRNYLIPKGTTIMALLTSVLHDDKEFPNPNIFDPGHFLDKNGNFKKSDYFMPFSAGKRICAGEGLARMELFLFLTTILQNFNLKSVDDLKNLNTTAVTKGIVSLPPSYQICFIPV

Cytochrome P450 2C19 = Cytochrome P450 2C19 (Homo sapiens, UniProt P33261); assay: Inhibition of CYP2C19 in human liver microsomes using S-mephenytoin as substrate incubated for 15 to 45 mins by; format: ADME, Microsome
Sequence of Cytochrome P450 2C19 (P33261 whole entry): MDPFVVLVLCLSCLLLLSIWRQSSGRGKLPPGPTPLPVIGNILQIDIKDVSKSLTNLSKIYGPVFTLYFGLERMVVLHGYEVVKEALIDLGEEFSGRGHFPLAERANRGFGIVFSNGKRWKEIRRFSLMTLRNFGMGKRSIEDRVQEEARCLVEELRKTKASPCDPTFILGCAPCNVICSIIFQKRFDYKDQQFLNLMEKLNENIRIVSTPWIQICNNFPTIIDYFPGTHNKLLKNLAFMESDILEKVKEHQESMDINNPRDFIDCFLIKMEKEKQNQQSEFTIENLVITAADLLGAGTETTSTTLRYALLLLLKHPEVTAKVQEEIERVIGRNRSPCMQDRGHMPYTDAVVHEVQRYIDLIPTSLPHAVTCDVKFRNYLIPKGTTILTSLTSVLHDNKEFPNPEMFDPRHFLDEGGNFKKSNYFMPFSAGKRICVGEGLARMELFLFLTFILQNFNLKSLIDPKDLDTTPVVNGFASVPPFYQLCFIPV

Cytochrome P450 3A4 [9] = target: T3, Cytochrome P450 3A4 (Homo sapiens, UniProt P08684); assay: Inhibition of CYP3A4 in human liver microsomes using midazolam as substrate incubated for 15 to 45 mins by; format: ADME, Microsome
T3 sequence (P08684 whole entry): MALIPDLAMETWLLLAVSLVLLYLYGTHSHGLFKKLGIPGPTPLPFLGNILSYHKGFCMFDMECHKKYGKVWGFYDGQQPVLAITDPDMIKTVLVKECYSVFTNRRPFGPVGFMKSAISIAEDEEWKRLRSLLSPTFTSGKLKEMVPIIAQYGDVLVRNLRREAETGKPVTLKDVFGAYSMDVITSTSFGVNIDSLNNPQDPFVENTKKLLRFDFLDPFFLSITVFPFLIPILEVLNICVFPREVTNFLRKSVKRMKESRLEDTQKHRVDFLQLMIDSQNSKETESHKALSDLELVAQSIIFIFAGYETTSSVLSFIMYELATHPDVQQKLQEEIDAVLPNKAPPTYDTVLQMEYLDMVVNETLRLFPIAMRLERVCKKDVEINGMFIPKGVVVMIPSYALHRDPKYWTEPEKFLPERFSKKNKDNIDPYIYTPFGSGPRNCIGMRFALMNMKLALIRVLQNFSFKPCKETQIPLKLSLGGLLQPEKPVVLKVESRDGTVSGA

Cytochrome P450 3A4 [10] = target: T3, Cytochrome P450 3A4; assay: Inhibition of CYP3A4 in human liver microsomes using testosterone as substrate incubated for 15 to 45 mins by; format: ADME, Microsome
[11] = Stability in human plasma assessed as compound remaining at 1 uM measured immediately by LC-MS/MS analysis; format: ADME, cell-free; conditions: read-out: Stability
[12] = Stability in human plasma assessed as compound remaining at 1 uM measured after 0.5 hrs by LC-MS/MS analysis; format: ADME, cell-free; conditions: read-out: Stability
[13] = Metabolic stability in rat liver microsomes assessed as half life at 1 uM measured up to 45 mins by LC/MS/MS analysis; format: ADME, Microsome; conditions: 0.75 h
[14] = Drug metabolism in human liver microsomes assessed as metabolic fraction at 1 uM measured up to 45 mins by LC/MS/MS analysis; format: ADME, Microsome; conditions: microsomes, 0.75 h, 1 µM
[15] = Drug metabolism in rat liver microsomes assessed as metabolic fraction at 1 uM measured up to 45 mins by LC/MS/MS analysis; format: ADME, Microsome; conditions: 0.75 h
[16] = Protein binding in human plasma assessed as unbound fraction at 1 uM incubated for 6 hrs; format: ADME, cell-free
[17] = Tmax in Sprague-Dawley rat at 1 mg/kg, iv measured for 0.083 to 24 hrs by LC-MS/MS analysis; format: ADME, organism-based; conditions: in vivo, time 0.083-24 hrs
[18] = Clearance in Sprague-Dawley rat at 1 mg/kg, iv measured for 0.083 to 24 hrs by LC-MS/MS analysis; format: ADME, organism-based; conditions: in vivo, time 0.083-24 hrs
[19] = Half life in Sprague-Dawley rat at 10 mg/kg, po measured for 0.083 to 24 hrs by LC-MS/MS analysis; format: ADME, organism-based; conditions: in vivo, time 0.083-24 hrs
[20] = Tmax in Sprague-Dawley rat at 10 mg/kg, po measured for 0.083 to 24 hrs by LC-MS/MS analysis; format: ADME, organism-based; conditions: in vivo, time 0.083-24 hrs
[21] = MRT (0 to t) in Sprague-Dawley rat at 10 mg/kg, po measured for 0.083 to 24 hrs by LC-MS/MS analysis; format: ADME, organism-based; conditions: in vivo, time 0.083-24 hrs
[22] = MRT (0 to infinity) in Sprague-Dawley rat at 10 mg/kg, po measured for 0.083 to 24 hrs by LC-MS/MS analysis; format: ADME, organism-based; conditions: in vivo, time 0.083-24 hrs
[23] = Oral bioavailability in Sprague-Dawley rat at 10 mg/kg measured for 0.083 to 24 hrs by LC-MS/MS analysis; format: ADME, organism-based; conditions: in vivo, time 0.083-24 hrs
[24] = Acute toxicity in ICR mouse assessed as body weight change at 2000 mg/kg, IG measured for 14 days; format: organism-based; conditions: in vivo, po, 336 h, time 14 day
[25] = Acute toxicity in ICR mouse assessed as animal mortality at 2000 mg/kg, IG measured for 14 days; format: organism-based; conditions: in vivo, po, 336 h, time 14 day
[26] = Acute toxicity in ICR mouse assessed as pathological change in spleen at 2000 mg/kg, IG measured for 14 days by H and E staining based analysis; format: organism-based; conditions: in vivo, po, 336 h, time 14 day
[27] = Acute toxicity in ICR mouse assessed as pathological change in lung at 2000 mg/kg, IG measured for 14 days by H and E staining based analysis; format: organism-based; conditions: in vivo, po, 336 h, time 14 day
[28] = Acute toxicity in ICR mouse assessed as pathological change in kidney at 2000 mg/kg, IG measured for 14 days by H and E staining based analysis; format: organism-based; conditions: in vivo, po, 336 h, time 14 day
[29] = Acute toxicity in ICR mouse assessed as pathological change in brain at 2000 mg/kg, IG measured for 14 days by H and E staining based analysis; format: organism-based; conditions: in vivo, po, 336 h, time 14 day
[30] = Acute toxicity in ICR mouse assessed as drug tolerance at 2000 mg/kg, IG measured for 14 days; format: organism-based; conditions: in vivo, po, 336 h, time 14 day

## [2H]C([2H])([2H])c1cc(C#N)cc(C([2H])([2H])[2H])c1Oc1nc(NC2CCN(Cc3ccc(S(N)(=O)=O)cc3)CC2)nc2ccsc12
[1]
  EC50: 2.61 nM
[2]
  EC50: 1.13 nM
[3]
  EC50: 5.86 nM
[4]
  EC50: 5.18 nM
[5]
  EC50: 4.46 nM
[6]
  EC50: 75.1 nM
[7]
  IC50: 932 nM
[8]
  fold change (FC): 1.9
Cytochrome P450 2C8
  IC50: > 10000 nM
Cytochrome P450 2C19
  IC50: > 10000 nM
Cytochrome P450 3A4 [9]
  IC50: > 10000 nM
Cytochrome P450 3A4 [10]
  IC50: > 10000 nM
[11]
  remaining at 0 h, 1 µM: 100%
[12]
  remaining at 0.5 h, 1 µM: 98.9%
[13]
  t1/2: 0.32 h
[14]
  Fm: 14.8%
[15]
  Fm: 28.9%
[16]
  Fu: 0.453%
[17]
  Tmax: 4.8 min
[18]
  clearance: 22.9 mL/min/kg
[19]
  half-life: 1.58 h
[20]
  Tmax: 0.5 h
[21]
  MRT last: 2.38 h
[22]
  MRT inf: 2.69 h
[23]
  bioavailability: 29%
[24]
  Activity: Non-toxic
[25]
  Activity: Non-toxic
[26]
  Activity: Non-toxic
[27]
  Activity: Non-toxic
[28]
  Activity: Non-toxic
[29]
  Activity: Non-toxic
[30]
  Activity: Non-toxic
